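Cultured in 96-well plates, cells were exposed to test compound for 48 hours across five concentrations. TGI denotes the concentration required for complete inhibition of growth.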
Columns and labels:
Assay in all cases: NCI-60 cell line screen, 48 h
IGROV1 ovarian = tested on: IGROV1 ovarian
SN12C renal = tested on: SN12C renal
A549 NSCLC = tested on: A549 NSCLC
HOP-92 NSCLC = tested on: HOP-92 NSCLC
NCI-H23 lung = tested on: NCI-H23 lung
M14 melanoma = tested on: M14 melanoma
EKVX NSCLC = tested on: EKVX NSCLC
SF-295 CNS = tested on: SF-295 CNS
CCRF-CEM leukemia = tested on: CCRF-CEM leukemia
NCI-H226 lung = tested on: NCI-H226 lung
RXF 393 renal = tested on: RXF 393 renal
TK-10 renal = tested on: TK-10 renal
DU-145 prostate = tested on: DU-145 prostate
SR leukemia = tested on: SR leukemia
NCI-H522 lung = tested on: NCI-H522 lung
CAKI-1 renal = tested on: CAKI-1 renal
SW-620 colon = tested on: SW-620 colon
PC-3 prostate = tested on: PC-3 prostate
LOX IMVI melanoma = tested on: LOX IMVI melanoma
K-562 leukemia = tested on: K-562 leukemia
SK-MEL-5 melanoma = tested on: SK-MEL-5 melanoma
HS 578T breast = tested on: HS 578T breast
MCF7 breast = tested on: MCF7 breast
SNB-19 CNS = tested on: SNB-19 CNS
MOLT-4 leukemia = tested on: MOLT-4 leukemia
NCI-H460 lung = tested on: NCI-H460 lung
HT29 colon = tested on: HT29 colon
UACC-62 melanoma = tested on: UACC-62 melanoma
UACC-257 melanoma = tested on: UACC-257 melanoma
OVCAR-3 ovarian = tested on: OVCAR-3 ovarian
ACHN renal = tested on: ACHN renal
KM12 colon = tested on: KM12 colon
NCI/ADR-RES ovarian = tested on: NCI/ADR-RES ovarian
HCC-2998 colon = tested on: HCC-2998 colon
T-47D breast = tested on: T-47D breast
U251 CNS = tested on: U251 CNS
OVCAR-4 ovarian = tested on: OVCAR-4 ovarian
HCT-116 colon = tested on: HCT-116 colon
MDA-MB-231 breast = tested on: MDA-MB-231 breast
SK-OV-3 ovarian = tested on: SK-OV-3 ovarian
MDA-MB-435 = tested on: MDA-MB-435
786-0 renal = tested on: 786-0 renal
SK-MEL-28 melanoma = tested on: SK-MEL-28 melanoma
HOP-62 NSCLC = tested on: HOP-62 NSCLC
SK-MEL-2 melanoma = tested on: SK-MEL-2 melanoma
HL-60(TB) leukemia = tested on: HL-60(TB) leukemia
SNB-75 CNS = tested on: SNB-75 CNS
SF-268 CNS = tested on: SF-268 CNS
SF-539 CNS = tested on: SF-539 CNS
BT-549 breast = tested on: BT-549 breast
OVCAR-8 ovarian = tested on: OVCAR-8 ovarian
HCT-15 colon = tested on: HCT-15 colon
MDA-N = tested on: MDA-N
COLO 205 colon = tested on: COLO 205 colon
OVCAR-5 ovarian = tested on: OVCAR-5 ovarian
RPMI-8226 leukemia = tested on: RPMI-8226 leukemia
MALME-3M melanoma = tested on: MALME-3M melanoma
UO-31 renal = tested on: UO-31 renal
A498 renal = tested on: A498 renal

For `Cc1nn(C(=O)c2ccncc2)c2c1C(c1ccccc1)SC(N)=N2` (configuration not stated), the TGI (IGROV1 ovarian) was greater than 10 µM, the TGI (SN12C renal) was greater than 10 µM and the TGI (A549 NSCLC) was greater than 10 µM. For the same compound, the TGI (HOP-92 NSCLC) was greater than 10 µM, the TGI (NCI-H23 lung) was greater than 10 µM and the TGI (M14 melanoma) was greater than 10 µM. For the same compound, the TGI (EKVX NSCLC) was greater than 10 µM, the TGI (SF-295 CNS) was greater than 10 µM and the TGI (CCRF-CEM leukemia) was greater than 10 µM. It also gave a TGI (NCI-H226 lung) greater than 10 µM, a TGI (RXF 393 renal) greater than 10 µM and a TGI (TK-10 renal) greater than 10 µM. The TGI (DU-145 prostate) was greater than 10 µM, the TGI (SR leukemia) was greater than 10 µM and the TGI (NCI-H522 lung) was greater than 10 µM. The TGI (CAKI-1 renal) was greater than 10 µM, the TGI (SW-620 colon) was greater than 10 µM and the TGI (PC-3 prostate) was greater than 10 µM. The TGI (LOX IMVI melanoma) was greater than 10 µM, the TGI (K-562 leukemia) was greater than 10 µM and the TGI (SK-MEL-5 melanoma) was greater than 10 µM. It also gave a TGI (HS 578T breast) greater than 10 µM, a TGI (MCF7 breast) greater than 10 µM and a TGI (SNB-19 CNS) greater than 10 µM. For the same compound, the TGI (MOLT-4 leukemia) was greater than 10 µM, the TGI (NCI-H460 lung) was greater than 10 µM and the TGI (HT29 colon) was greater than 10 µM. It also gave a TGI (UACC-62 melanoma) greater than 10 µM, a TGI (UACC-257 melanoma) greater than 10 µM and a TGI (OVCAR-3 ovarian) greater than 10 µM. For the same compound, the TGI (ACHN renal) was greater than 10 µM, the TGI (KM12 colon) was greater than 10 µM and the TGI (NCI/ADR-RES ovarian) was greater than 10 µM. For the same compound, the TGI (HCC-2998 colon) was greater than 10 µM, the TGI (T-47D breast) was greater than 10 µM and the TGI (U251 CNS) was greater than 10 µM. It also gave a TGI (OVCAR-4 ovarian) greater than 10 µM, a TGI (HCT-116 colon) greater than 10 µM and a TGI (MDA-MB-231 breast) greater than 10 µM. The TGI (SK-OV-3 ovarian) was greater than 10 µM, the TGI (MDA-MB-435) was greater than 10 µM and the TGI (786-0 renal) was greater than 10 µM. It also gave a TGI (SK-MEL-28 melanoma) greater than 10 µM, a TGI (HOP-62 NSCLC) greater than 10 µM and a TGI (SK-MEL-2 melanoma) greater than 10 µM. For the same compound, the TGI (HL-60(TB) leukemia) was greater than 10 µM, the TGI (SNB-75 CNS) was greater than 10 µM and the TGI (SF-268 CNS) was greater than 10 µM. For the same compound, the TGI (SF-539 CNS) was greater than 10 µM, the TGI (BT-549 breast) was greater than 10 µM and the TGI (OVCAR-8 ovarian) was greater than 10 µM. For the same compound, the TGI (HCT-15 colon) was greater than 10 µM, the TGI (MDA-N) was greater than 10 µM and the TGI (COLO 205 colon) was greater than 10 µM. The TGI (OVCAR-5 ovarian) was greater than 10 µM, the TGI (RPMI-8226 leukemia) was greater than 10 µM and the TGI (MALME-3M melanoma) was greater than 10 µM.
In the case of `O=C(Nc1nn(C(=O)c2ccc(Cl)cc2)c(=O)s1)c1ccc(Cl)cc1`, the TGI (IGROV1 ovarian) is reported as greater than 100 µM, the TGI (SN12C renal) is reported as greater than 100 µM and the TGI (A549 NSCLC) is reported as greater than 100 µM. For the same compound, the TGI (HOP-92 NSCLC) was greater than 100 µM, the TGI (NCI-H23 lung) was greater than 100 µM and the TGI (UO-31 renal) was greater than 100 µM. The TGI (M14 melanoma) was greater than 100 µM, the TGI (EKVX NSCLC) was greater than 100 µM and the TGI (SF-295 CNS) was greater than 100 µM. It also gave a TGI (CCRF-CEM leukemia) greater than 100 µM, a TGI (NCI-H226 lung) greater than 100 µM and a TGI (RXF 393 renal) greater than 100 µM. The TGI (TK-10 renal) was greater than 100 µM, the TGI (DU-145 prostate) was greater than 100 µM and the TGI (SR leukemia) was greater than 100 µM. For the same compound, the TGI (NCI-H522 lung) was greater than 100 µM, the TGI (CAKI-1 renal) was greater than 100 µM and the TGI (SW-620 colon) was greater than 100 µM. The TGI (PC-3 prostate) was greater than 100 µM, the TGI (A498 renal) was greater than 100 µM and the TGI (LOX IMVI melanoma) was greater than 100 µM. For the same compound, the TGI (K-562 leukemia) was greater than 100 µM, the TGI (SK-MEL-5 melanoma) was greater than 100 µM and the TGI (HS 578T breast) was greater than 100 µM. The TGI (MCF7 breast) was greater than 100 µM, the TGI (SNB-19 CNS) was greater than 100 µM and the TGI (MOLT-4 leukemia) was greater than 100 µM. For the same compound, the TGI (NCI-H460 lung) was greater than 100 µM, the TGI (HT29 colon) was greater than 100 µM and the TGI (UACC-62 melanoma) was greater than 100 µM. It also gave a TGI (UACC-257 melanoma) greater than 100 µM, a TGI (OVCAR-3 ovarian) greater than 100 µM and a TGI (ACHN renal) greater than 100 µM. The TGI (KM12 colon) was greater than 100 µM, the TGI (NCI/ADR-RES ovarian) was greater than 100 µM and the TGI (HCC-2998 colon) was greater than 100 µM. It also gave a TGI (T-47D breast) greater than 100 µM, a TGI (U251 CNS) greater than 100 µM and a TGI (OVCAR-4 ovarian) greater than 100 µM. For the same compound, the TGI (HCT-116 colon) was greater than 100 µM, the TGI (MDA-MB-231 breast) was greater than 100 µM and the TGI (SK-OV-3 ovarian) was greater than 100 µM. It also gave a TGI (MDA-MB-435) greater than 100 µM, a TGI (786-0 renal) greater than 100 µM and a TGI (SK-MEL-28 melanoma) greater than 100 µM. It also gave a TGI (HOP-62 NSCLC) greater than 100 µM, a TGI (HL-60(TB) leukemia) greater than 100 µM and a TGI (SF-268 CNS) greater than 100 µM. For the same compound, the TGI (BT-549 breast) was greater than 100 µM, the TGI (OVCAR-8 ovarian) was greater than 100 µM and the TGI (HCT-15 colon) was greater than 100 µM. It also gave a TGI (MDA-N) greater than 100 µM, a TGI (COLO 205 colon) greater than 100 µM and a TGI (OVCAR-5 ovarian) greater than 100 µM. It also gave a TGI (MALME-3M melanoma) greater than 100 µM.
